The assay concerns Cavia porcellus. As to the kind of experiment: Antihypertensive activity in Cavia porcellus (guinea pig) assessed as decrease in systolic blood pressure at 3 mg/kg, iv relative to control. It is filed as functional, Artery.
With `CCCCc1nc2cc(NCC)ccc2n1Cc1ccc(-c2ccccc2-c2nnn[nH]2)cc1`, the Activity is on record as 29 mmHg.

`CCC/C=N/c1ccc2c(c1)nc(CCCC)n2Cc1ccc(-c2ccccc2-c2nnn[nH]2)cc1`: the Activity amounted to 17 mmHg. The result for `CC/C=N/c1ccc2c(c1)nc(CCCC)n2Cc1ccc(-c2ccccc2-c2nnn[nH]2)cc1` reads 18 mmHg; that for `CCCCc1nc2cc(NC(C)=O)ccc2n1Cc1ccc(-c2ccccc2-c2nnn[nH]2)cc1`, 22 mmHg. As for `CCCCc1nc2cc(N(C)C)ccc2n1Cc1ccc(-c2ccccc2-c2nnn[nH]2)cc1`, the figure is 29 mmHg; as for `CCCCNc1ccc2c(c1)nc(CCCC)n2Cc1ccc(-c2ccccc2-c2nnn[nH]2)cc1`, 31 mmHg. As for `CCCCc1nc2cc([N+](=O)[O-])ccc2n1Cc1ccc(-c2ccccc2-c2nnn[nH]2)cc1`, the figure is 15 mmHg; as for `CCCCc1nc2cc(N(CC)CC)ccc2n1Cc1ccc(-c2ccccc2-c2nnn[nH]2)cc1`, 33 mmHg. For the compound `CCCCC/C=N/c1ccc2c(c1)nc(CCCC)n2Cc1ccc(-c2ccccc2-c2nnn[nH]2)cc1`, the Activity worked out at 25 mmHg. The result for `CCCCc1nc2cc(N)ccc2n1Cc1ccc(-c2ccccc2-c2nnn[nH]2)cc1` reads 19 mmHg; that for `CCCCc1nc2cc(NCc3ccccc3)ccc2n1Cc1ccc(-c2ccccc2-c2nnn[nH]2)cc1`, 31 mmHg. As for `CCCCc1nc2cc(NCCC)ccc2n1Cc1ccc(-c2ccccc2-c2nnn[nH]2)cc1`, the figure is 32 mmHg; as for `C/C=N/c1ccc2c(c1)nc(CCCC)n2Cc1ccc(-c2ccccc2-c2nnn[nH]2)cc1`, 27 mmHg. As for `CCCCc1nc(Cl)c(CO)n1Cc1ccc(-c2ccccc2-c2nnn[nH]2)cc1` [LOSARTAN], the Activity was determined as 34 mmHg.

For the compound `CCCCc1nc2cc(NC)ccc2n1Cc1ccc(-c2ccccc2-c2nnn[nH]2)cc1`, the Activity was determined as 12 mmHg. As for `CCCCc1nc2cc(NC(=O)c3ccccc3)ccc2n1Cc1ccc(-c2ccccc2-c2nnn[nH]2)cc1`, the figure is 28 mmHg. The result for `CCCC/C=N/c1ccc2c(c1)nc(CCCC)n2Cc1ccc(-c2ccccc2-c2nnn[nH]2)cc1` reads 27 mmHg.
